{
  "source": "paper PMC9506414",
  "about": "“Novel 2,6,9-Trisubstituted Purines as Potent CDK Inhibitors Alleviating Trastuzumab-Resistance of HER2-Positive Breast Cancers” (Pharmaceuticals, 2022)",
  "experiment_in_all_cases": "Kinome-wide inhibition profiling",
  "assay_type_in_all_cases": "biochemical",
  "key": {"AKT1": {"molecular_target": "T1, AKT1 (Homo sapiens, UniProt P31749)", "T1 construct": "purchased Reaction Biology Corp", "procedure": "(§1) In vitro CDK12/cyclinK assays for all compounds and in vitro kinome-wide inhibition profiling of 30d at 10 μM were performed by a CRO company (Reaction Biology Corp., San Diego, CA, USA)."}, "ALK": {"molecular_target": "T2, ALK (Homo sapiens, UniProt Q9UM73)", "T2 construct": "purchased Reaction Biology Corp", "procedure": "as §1"}, "ASK1": {"molecular_target": "T3, ASK1 (Homo sapiens, UniProt Q99683)", "T3 construct": "purchased Reaction Biology Corp", "procedure": "as §1"}, "BRSK2": {"molecular_target": "T4, BRSK2 (Homo sapiens, UniProt Q8IWQ3)", "T4 construct": "purchased Reaction Biology Corp", "T4 sequence (Q8IWQ3 whole entry)": "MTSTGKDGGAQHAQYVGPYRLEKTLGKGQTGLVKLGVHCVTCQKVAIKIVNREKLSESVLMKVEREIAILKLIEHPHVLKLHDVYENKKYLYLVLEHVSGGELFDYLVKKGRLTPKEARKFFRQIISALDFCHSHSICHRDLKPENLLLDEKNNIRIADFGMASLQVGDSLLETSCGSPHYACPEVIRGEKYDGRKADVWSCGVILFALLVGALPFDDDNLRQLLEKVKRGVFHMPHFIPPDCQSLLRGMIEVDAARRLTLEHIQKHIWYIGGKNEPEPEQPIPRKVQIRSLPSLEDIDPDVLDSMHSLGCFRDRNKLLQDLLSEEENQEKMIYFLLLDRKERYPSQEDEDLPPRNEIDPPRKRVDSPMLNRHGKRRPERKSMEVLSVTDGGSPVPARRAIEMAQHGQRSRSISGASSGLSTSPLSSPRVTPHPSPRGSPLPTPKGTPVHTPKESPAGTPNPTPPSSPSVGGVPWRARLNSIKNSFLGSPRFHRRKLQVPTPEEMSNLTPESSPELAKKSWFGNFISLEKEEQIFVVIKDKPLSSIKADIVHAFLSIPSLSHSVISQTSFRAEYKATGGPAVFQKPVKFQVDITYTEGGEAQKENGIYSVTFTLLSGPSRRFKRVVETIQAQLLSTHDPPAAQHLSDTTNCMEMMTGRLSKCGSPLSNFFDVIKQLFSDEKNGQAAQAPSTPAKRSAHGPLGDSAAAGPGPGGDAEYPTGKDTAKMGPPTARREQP", "procedure": "as §1"}, "CAMK1a": {"molecular_target": "T5, CAMK1a (Homo sapiens, UniProt Q14012)", "T5 construct": "purchased Reaction Biology Corp", "procedure": "as §1"}, "DYRK1A": {"molecular_target": "T6, DYRK1A (Homo sapiens, UniProt Q13627)", "T6 construct": "purchased Reaction Biology Corp", "procedure": "as §1"}, "DYRK3": {"molecular_target": "T7, DYRK3 (Homo sapiens, UniProt O43781)", "T7 construct": "purchased Reaction Biology Corp", "procedure": "as §1"}, "EPHB4": {"molecular_target": "T8, EPHB4 (Homo sapiens, UniProt P54760)", "T8 construct": "purchased Reaction Biology Corp", "procedure": "as §1"}, "ERBB4": {"molecular_target": "T9, ERBB4 (Homo sapiens, UniProt Q15303)", "T9 construct": "purchased Reaction Biology Corp", "procedure": "as §1"}, "FRK": {"molecular_target": "T10, FRK (Homo sapiens, UniProt P42685)", "T10 construct": "purchased Reaction Biology Corp", "procedure": "as §1"}, "INSR": {"molecular_target": "T11, INSR (Homo sapiens, UniProt P06213)", "T11 construct": "purchased Reaction Biology Corp", "procedure": "as §1"}, "JAK1": {"molecular_target": "T12, JAK1 (Homo sapiens, UniProt P23458)", "T12 construct": "purchased Reaction Biology Corp", "procedure": "as §1"}, "KSR2": {"molecular_target": "T13, KSR2 (Homo sapiens, UniProt Q6VAB6)", "T13 construct": "purchased Reaction Biology Corp", "T13 sequence (Q6VAB6 whole entry)": "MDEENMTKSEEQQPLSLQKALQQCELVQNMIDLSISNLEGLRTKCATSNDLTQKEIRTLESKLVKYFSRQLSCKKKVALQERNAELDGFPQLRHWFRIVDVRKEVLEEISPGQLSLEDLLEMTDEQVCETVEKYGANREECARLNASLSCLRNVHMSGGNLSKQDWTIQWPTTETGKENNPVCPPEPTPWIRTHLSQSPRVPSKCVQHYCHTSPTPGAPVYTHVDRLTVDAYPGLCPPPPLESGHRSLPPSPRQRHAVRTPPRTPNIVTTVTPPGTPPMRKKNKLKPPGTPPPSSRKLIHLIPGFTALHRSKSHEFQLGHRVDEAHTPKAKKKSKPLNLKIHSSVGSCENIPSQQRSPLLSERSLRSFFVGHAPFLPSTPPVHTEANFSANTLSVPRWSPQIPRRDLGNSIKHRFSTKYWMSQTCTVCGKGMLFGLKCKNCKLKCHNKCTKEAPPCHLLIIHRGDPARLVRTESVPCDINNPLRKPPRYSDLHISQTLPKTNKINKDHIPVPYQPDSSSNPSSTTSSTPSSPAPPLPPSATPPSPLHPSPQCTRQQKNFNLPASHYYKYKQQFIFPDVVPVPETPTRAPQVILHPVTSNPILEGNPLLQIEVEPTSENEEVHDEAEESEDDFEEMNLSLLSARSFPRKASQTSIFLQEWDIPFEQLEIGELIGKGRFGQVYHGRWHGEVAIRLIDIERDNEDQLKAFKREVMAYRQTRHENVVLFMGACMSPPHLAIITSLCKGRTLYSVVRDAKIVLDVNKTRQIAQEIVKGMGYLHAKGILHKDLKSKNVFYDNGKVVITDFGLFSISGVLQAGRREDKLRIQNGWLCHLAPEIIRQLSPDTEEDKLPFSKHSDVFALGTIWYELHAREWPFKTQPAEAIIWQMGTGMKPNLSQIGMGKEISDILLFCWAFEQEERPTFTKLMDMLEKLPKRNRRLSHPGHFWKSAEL", "procedure": "as §1"}, "LYN": {"molecular_target": "T14, LYN (Homo sapiens, UniProt P07948)", "T14 construct": "purchased Reaction Biology Corp", "procedure": "as §1"}, "MAP4K2": {"molecular_target": "T15, MAP4K2 (Homo sapiens, UniProt Q12851)", "T15 construct": "purchased Reaction Biology Corp", "procedure": "as §1"}, "MARK1": {"molecular_target": "T16, MARK1 (Homo sapiens, UniProt Q9P0L2)", "T16 construct": "purchased Reaction Biology Corp", "procedure": "as §1"}, "MEK3": {"molecular_target": "T17, MEK3 (Homo sapiens, UniProt P46734)", "T17 construct": "purchased Reaction Biology Corp", "T17 sequence (P46734 whole entry)": "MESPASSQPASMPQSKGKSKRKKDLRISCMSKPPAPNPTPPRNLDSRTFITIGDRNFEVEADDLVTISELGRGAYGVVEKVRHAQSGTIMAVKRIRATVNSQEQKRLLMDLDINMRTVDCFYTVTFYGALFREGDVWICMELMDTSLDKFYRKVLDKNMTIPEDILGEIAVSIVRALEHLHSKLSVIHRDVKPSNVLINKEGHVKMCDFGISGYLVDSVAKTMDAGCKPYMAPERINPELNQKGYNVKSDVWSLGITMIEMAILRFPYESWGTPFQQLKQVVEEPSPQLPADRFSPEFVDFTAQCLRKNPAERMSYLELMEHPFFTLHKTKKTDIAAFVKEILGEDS", "procedure": "as §1"}, "MEK5": {"molecular_target": "T18, MEK5 (Homo sapiens, UniProt Q13163)", "T18 construct": "purchased Reaction Biology Corp", "T18 sequence (Q13163 whole entry)": "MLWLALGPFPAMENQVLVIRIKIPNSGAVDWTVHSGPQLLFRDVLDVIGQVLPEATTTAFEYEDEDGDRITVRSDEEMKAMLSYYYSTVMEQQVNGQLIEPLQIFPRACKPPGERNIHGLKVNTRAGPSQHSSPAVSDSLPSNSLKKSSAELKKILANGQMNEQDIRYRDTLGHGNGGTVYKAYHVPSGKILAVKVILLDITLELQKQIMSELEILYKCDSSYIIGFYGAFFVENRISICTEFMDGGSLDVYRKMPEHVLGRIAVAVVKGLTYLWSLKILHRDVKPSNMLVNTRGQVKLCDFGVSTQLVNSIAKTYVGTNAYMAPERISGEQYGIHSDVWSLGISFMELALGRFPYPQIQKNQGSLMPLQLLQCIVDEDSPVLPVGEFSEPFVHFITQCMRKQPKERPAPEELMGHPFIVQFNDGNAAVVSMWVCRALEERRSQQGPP", "procedure": "as §1"}, "MERTK": {"molecular_target": "T19, MERTK (Homo sapiens, UniProt Q12866)", "T19 construct": "purchased Reaction Biology Corp", "procedure": "as §1"}, "MET": {"molecular_target": "T20, MET (Homo sapiens, UniProt P08581)", "T20 construct": "purchased Reaction Biology Corp", "procedure": "as §1"}, "MLK3": {"molecular_target": "T21, MLK3 (Homo sapiens, UniProt Q16584)", "T21 construct": "purchased Reaction Biology Corp", "procedure": "as §1"}, "MLK4": {"molecular_target": "T22, MLK4 (Homo sapiens, UniProt Q5TCX8)", "T22 construct": "purchased Reaction Biology Corp", "procedure": "as §1"}, "MRCKb": {"molecular_target": "T23, MRCKb (Homo sapiens, UniProt Q9Y5S2)", "T23 construct": "purchased Reaction Biology Corp", "procedure": "as §1"}, "MST2": {"molecular_target": "T24, MST2 (Homo sapiens, UniProt Q13188)", "T24 construct": "purchased Reaction Biology Corp", "procedure": "as §1"}, "MST4": {"molecular_target": "T25, MST4 (Homo sapiens, UniProt Q9P289)", "T25 construct": "purchased Reaction Biology Corp", "procedure": "as §1"}, "NDR2": {"molecular_target": "T26, NDR2 (Homo sapiens, UniProt Q9Y2H1)", "T26 construct": "purchased Reaction Biology Corp", "T26 sequence (Q9Y2H1 whole entry)": "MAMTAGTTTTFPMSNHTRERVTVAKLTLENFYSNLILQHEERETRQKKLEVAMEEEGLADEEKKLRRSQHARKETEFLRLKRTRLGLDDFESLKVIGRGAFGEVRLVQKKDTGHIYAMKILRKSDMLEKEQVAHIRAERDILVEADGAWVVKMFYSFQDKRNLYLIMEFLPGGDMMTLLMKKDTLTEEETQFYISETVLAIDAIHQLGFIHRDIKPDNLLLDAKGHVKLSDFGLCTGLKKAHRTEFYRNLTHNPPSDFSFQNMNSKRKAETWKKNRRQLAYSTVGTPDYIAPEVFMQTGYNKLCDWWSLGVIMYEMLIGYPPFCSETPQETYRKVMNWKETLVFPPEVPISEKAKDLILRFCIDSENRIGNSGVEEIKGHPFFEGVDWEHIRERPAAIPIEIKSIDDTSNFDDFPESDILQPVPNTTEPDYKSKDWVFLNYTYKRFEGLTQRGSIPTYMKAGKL", "procedure": "as §1"}, "NEK11": {"molecular_target": "T27, NEK11 (Homo sapiens, UniProt Q8NG66)", "T27 construct": "purchased Reaction Biology Corp", "T27 sequence (Q8NG66 whole entry)": "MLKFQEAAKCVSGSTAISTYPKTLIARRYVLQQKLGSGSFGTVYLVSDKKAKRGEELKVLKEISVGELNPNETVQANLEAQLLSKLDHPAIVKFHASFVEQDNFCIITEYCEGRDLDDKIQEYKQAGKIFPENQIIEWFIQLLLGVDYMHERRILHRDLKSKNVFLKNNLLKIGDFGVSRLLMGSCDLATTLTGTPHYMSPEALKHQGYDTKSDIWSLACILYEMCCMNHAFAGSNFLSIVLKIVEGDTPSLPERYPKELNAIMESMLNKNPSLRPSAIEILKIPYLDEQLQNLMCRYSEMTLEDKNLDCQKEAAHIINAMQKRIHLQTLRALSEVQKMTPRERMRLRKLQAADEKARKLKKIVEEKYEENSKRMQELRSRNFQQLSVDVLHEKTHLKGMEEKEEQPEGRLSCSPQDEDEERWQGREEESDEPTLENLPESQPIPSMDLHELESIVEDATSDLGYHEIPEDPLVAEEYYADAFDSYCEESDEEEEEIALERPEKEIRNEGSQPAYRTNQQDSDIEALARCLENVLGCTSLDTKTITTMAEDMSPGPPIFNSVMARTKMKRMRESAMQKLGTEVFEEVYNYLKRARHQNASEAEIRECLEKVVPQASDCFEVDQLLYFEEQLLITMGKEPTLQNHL", "procedure": "as §1"}, "PAK5": {"molecular_target": "T28, PAK5 (Homo sapiens, UniProt Q9P286)", "T28 construct": "purchased Reaction Biology Corp", "procedure": "as §1"}, "PAK6": {"molecular_target": "T29, PAK6 (Homo sapiens, UniProt Q9NQU5)", "T29 construct": "purchased Reaction Biology Corp", "procedure": "as §1"}, "PCTK2": {"molecular_target": "T30, PCTK2 (Homo sapiens, UniProt Q00537)", "T30 construct": "purchased Reaction Biology Corp", "procedure": "as §1"}, "PKAC-gamma": {"molecular_target": "T31, PKAC-gamma (Homo sapiens, UniProt P22612)", "T31 construct": "purchased Reaction Biology Corp", "T31 sequence (P22612 whole entry)": "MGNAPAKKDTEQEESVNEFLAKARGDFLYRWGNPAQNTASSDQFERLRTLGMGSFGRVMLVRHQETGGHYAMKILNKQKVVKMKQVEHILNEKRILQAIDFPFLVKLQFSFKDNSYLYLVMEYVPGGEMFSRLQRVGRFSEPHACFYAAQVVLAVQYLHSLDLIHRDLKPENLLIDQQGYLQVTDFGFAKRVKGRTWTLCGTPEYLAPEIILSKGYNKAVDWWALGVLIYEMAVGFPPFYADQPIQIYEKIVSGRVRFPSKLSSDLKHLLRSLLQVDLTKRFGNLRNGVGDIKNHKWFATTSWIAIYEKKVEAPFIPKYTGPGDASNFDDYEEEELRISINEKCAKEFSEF", "procedure": "as §1"}, "PLK3": {"molecular_target": "T32, PLK3 (Homo sapiens, UniProt Q9H4B4)", "T32 construct": "purchased Reaction Biology Corp", "procedure": "as §1"}, "RAF1": {"molecular_target": "T33, RAF1 (Homo sapiens, UniProt P04049)", "T33 construct": "purchased Reaction Biology Corp", "procedure": "as §1"}, "RET": {"molecular_target": "T34, RET (Homo sapiens, UniProt P07949)", "T34 construct": "purchased Reaction Biology Corp", "procedure": "as §1"}, "RIPK5": {"molecular_target": "T35, RIPK5 (Homo sapiens, UniProt Q6XUX3)", "T35 construct": "purchased Reaction Biology Corp", "procedure": "as §1"}, "RSK1": {"molecular_target": "T36, RSK1 (Homo sapiens, UniProt Q15418)", "T36 construct": "purchased Reaction Biology Corp", "procedure": "as §1"}, "STK33": {"molecular_target": "T37, STK33 (Homo sapiens, UniProt Q9BYT3)", "T37 construct": "purchased Reaction Biology Corp", "procedure": "as §1"}, "TAOK1": {"molecular_target": "T38, TAOK1 (Homo sapiens, UniProt Q7L7X3)", "T38 construct": "purchased Reaction Biology Corp", "procedure": "as §1"}, "TLK2": {"molecular_target": "T39, TLK2 (Homo sapiens, UniProt Q86UE8)", "T39 construct": "purchased Reaction Biology Corp", "T39 sequence (Q86UE8 whole entry)": "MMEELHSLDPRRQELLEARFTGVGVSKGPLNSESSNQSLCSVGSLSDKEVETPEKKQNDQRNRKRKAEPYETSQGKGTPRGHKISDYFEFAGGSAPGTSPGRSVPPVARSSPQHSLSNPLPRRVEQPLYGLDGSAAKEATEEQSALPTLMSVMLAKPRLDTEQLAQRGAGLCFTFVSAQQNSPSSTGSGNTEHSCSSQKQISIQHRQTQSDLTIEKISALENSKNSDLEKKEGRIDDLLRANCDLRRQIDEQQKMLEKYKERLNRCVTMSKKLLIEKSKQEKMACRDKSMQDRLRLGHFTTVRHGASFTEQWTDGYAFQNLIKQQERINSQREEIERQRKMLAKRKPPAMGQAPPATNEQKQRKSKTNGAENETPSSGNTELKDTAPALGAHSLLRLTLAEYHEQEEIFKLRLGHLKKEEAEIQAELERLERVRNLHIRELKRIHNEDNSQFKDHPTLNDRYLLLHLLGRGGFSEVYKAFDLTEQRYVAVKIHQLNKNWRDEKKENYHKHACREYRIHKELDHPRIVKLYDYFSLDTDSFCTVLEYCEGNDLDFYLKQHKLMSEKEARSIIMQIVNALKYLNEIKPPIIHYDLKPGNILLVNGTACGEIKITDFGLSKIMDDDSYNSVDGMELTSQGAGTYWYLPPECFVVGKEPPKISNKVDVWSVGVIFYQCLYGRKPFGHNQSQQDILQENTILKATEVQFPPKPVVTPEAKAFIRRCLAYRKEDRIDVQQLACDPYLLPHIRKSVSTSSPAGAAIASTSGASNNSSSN", "procedure": "as §1"}, "TNK1": {"molecular_target": "T40, TNK1 (Homo sapiens, UniProt Q13470)", "T40 construct": "purchased Reaction Biology Corp", "procedure": "as §1"}, "TYRO3": {"molecular_target": "T41, TYRO3 (Homo sapiens, UniProt Q06418)", "T41 construct": "purchased Reaction Biology Corp", "procedure": "as §1"}, "WNK2": {"molecular_target": "T42, WNK2 (Homo sapiens, UniProt Q9Y3S1)", "T42 construct": "purchased Reaction Biology Corp", "procedure": "as §1"}, "WNK3": {"molecular_target": "T43, WNK3 (Homo sapiens, UniProt Q9BYP7)", "T43 construct": "purchased Reaction Biology Corp", "procedure": "as §1"}, "YES": {"molecular_target": "T44, YES (Homo sapiens, UniProt P07947)", "T44 construct": "purchased Reaction Biology Corp", "procedure": "as §1"}},
  "data": [
    {"compound": "CCn1cnc2c(NCc3ccc(-c4ccccn4)nc3)nc(-c3ccc(N)nc3)nc21", "note": "[Compound 30d, N-([2,2′-Bipyridin]-5-ylmethyl)-2-(6-aminopyridin-3-yl)-9-ethyl-9H-purin-6-amine]", "values": [
      {"measurement": "remaining activity at 10 µM", "setting": "AKT1", "value": 94.9, "unit": "%"},
      {"measurement": "remaining activity at 10 µM", "setting": "ALK", "value": 59.7, "unit": "%"},
      {"measurement": "remaining activity at 10 µM", "setting": "ASK1", "value": 18.4, "unit": "%"},
      {"measurement": "remaining activity at 10 µM", "setting": "BRSK2", "value": 97.5, "unit": "%"},
      {"measurement": "remaining activity at 10 µM", "setting": "CAMK1a", "value": 34, "unit": "%"},
      {"measurement": "inhibition at 10 µM", "setting": "DYRK1A", "value": "> 95", "unit": "%"},
      {"measurement": "remaining activity at 10 µM", "setting": "DYRK1A", "value": 3.9, "unit": "%"},
      {"measurement": "remaining activity at 10 µM", "setting": "DYRK3", "value": 58.6, "unit": "%"},
      {"measurement": "remaining activity at 10 µM", "setting": "EPHB4", "value": 23.2, "unit": "%"},
      {"measurement": "remaining activity at 10 µM", "setting": "ERBB4", "value": 73, "unit": "%"},
      {"measurement": "remaining activity at 10 µM", "setting": "FRK", "value": 43.5, "unit": "%"},
      {"measurement": "remaining activity at 10 µM", "setting": "INSR", "value": 65.1, "unit": "%"},
      {"measurement": "remaining activity at 10 µM", "setting": "JAK1", "value": 92.1, "unit": "%"},
      {"measurement": "remaining activity at 10 µM", "setting": "KSR2", "value": 88.4, "unit": "%"},
      {"measurement": "remaining activity at 10 µM", "setting": "LYN", "value": 65.7, "unit": "%"},
      {"measurement": "remaining activity at 10 µM", "setting": "MAP4K2", "value": 58.4, "unit": "%"},
      {"measurement": "remaining activity at 10 µM", "setting": "MARK1", "value": 81.5, "unit": "%"},
      {"measurement": "remaining activity at 10 µM", "setting": "MEK3", "value": 73.5, "unit": "%"},
      {"measurement": "remaining activity at 10 µM", "setting": "MEK5", "value": 84.1, "unit": "%"},
      {"measurement": "remaining activity at 10 µM", "setting": "MERTK", "value": 71, "unit": "%"},
      {"measurement": "remaining activity at 10 µM", "setting": "MET", "value": 96.4, "unit": "%"},
      {"measurement": "remaining activity at 10 µM", "setting": "MLK3", "value": 51.4, "unit": "%"},
      {"measurement": "remaining activity at 10 µM", "setting": "MLK4", "value": 114, "unit": "%"},
      {"measurement": "remaining activity at 10 µM", "setting": "MRCKb", "value": 99.3, "unit": "%"},
      {"measurement": "remaining activity at 10 µM", "setting": "MST2", "value": 53.5, "unit": "%"},
      {"measurement": "remaining activity at 10 µM", "setting": "MST4", "value": 45.8, "unit": "%"},
      {"measurement": "remaining activity at 10 µM", "setting": "NDR2", "value": 36.9, "unit": "%"},
      {"measurement": "remaining activity at 10 µM", "setting": "NEK11", "value": 94.3, "unit": "%"},
      {"measurement": "remaining activity at 10 µM", "setting": "PAK5", "value": 7.6, "unit": "%"},
      {"measurement": "remaining activity at 10 µM", "setting": "PAK6", "value": 57.2, "unit": "%"},
      {"measurement": "remaining activity at 10 µM", "setting": "PCTK2", "value": 7.3, "unit": "%"},
      {"measurement": "remaining activity at 10 µM", "setting": "PKAC-gamma", "value": 88.4, "unit": "%"},
      {"measurement": "remaining activity at 10 µM", "setting": "PLK3", "value": 94.4, "unit": "%"},
      {"measurement": "remaining activity at 10 µM", "setting": "RAF1", "value": 68.6, "unit": "%"},
      {"measurement": "remaining activity at 10 µM", "setting": "RET", "value": 79.4, "unit": "%"},
      {"measurement": "remaining activity at 10 µM", "setting": "RIPK5", "value": 67.8, "unit": "%"},
      {"measurement": "remaining activity at 10 µM", "setting": "RSK1", "value": 59.1, "unit": "%"},
      {"measurement": "remaining activity at 10 µM", "setting": "STK33", "value": 33.5, "unit": "%"},
      {"measurement": "remaining activity at 10 µM", "setting": "TAOK1", "value": 28.1, "unit": "%"},
      {"measurement": "remaining activity at 10 µM", "setting": "TLK2", "value": 72.2, "unit": "%"},
      {"measurement": "remaining activity at 10 µM", "setting": "TNK1", "value": 91.3, "unit": "%"},
      {"measurement": "remaining activity at 10 µM", "setting": "TYRO3", "value": 22.4, "unit": "%"},
      {"measurement": "remaining activity at 10 µM", "setting": "WNK2", "value": 108, "unit": "%"},
      {"measurement": "remaining activity at 10 µM", "setting": "WNK3", "value": 74.5, "unit": "%"},
      {"measurement": "remaining activity at 10 µM", "setting": "YES", "value": 20.6, "unit": "%"}
    ]}
  ]
}
